# In PubChem BioAssay (NCI):
#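 Five concentrations, 48 hours, 96-well plates. Definition used: TGI = concentration required for complete inhibition of growth.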
# Legend:
# Test in all cases: NCI-60 cell line screen, 48 h
# 786-0 renal = system: 786-0 renal
# A549 NSCLC = system: A549 NSCLC
# ACHN renal = system: ACHN renal
# BT-549 breast = system: BT-549 breast
# CAKI-1 renal = system: CAKI-1 renal
# CCRF-CEM leukemia = system: CCRF-CEM leukemia
# COLO 205 colon = system: COLO 205 colon
# DLD-1 colon = system: DLD-1 colon
# DMS 114 small cell lung = system: DMS 114 small cell lung
# DMS 273 small cell lung = system: DMS 273 small cell lung
# DU-145 prostate = system: DU-145 prostate
# EKVX NSCLC = system: EKVX NSCLC
# HCC-2998 colon = system: HCC-2998 colon
# HCT-116 colon = system: HCT-116 colon
# HCT-15 colon = system: HCT-15 colon
# HL-60(TB) leukemia = system: HL-60(TB) leukemia
# HOP-18 NSCLC = system: HOP-18 NSCLC
# HOP-62 NSCLC = system: HOP-62 NSCLC
# HOP-92 NSCLC = system: HOP-92 NSCLC
# HS 578T breast = system: HS 578T breast
# HT29 colon = system: HT29 colon
# IGROV1 ovarian = system: IGROV1 ovarian
# K-562 leukemia = system: K-562 leukemia
# KM12 colon = system: KM12 colon
# KM20L2 colon = system: KM20L2 colon
# LOX IMVI melanoma = system: LOX IMVI melanoma
# LXFL 529 NSCLC = system: LXFL 529 NSCLC
# M14 melanoma = system: M14 melanoma
# M19-MEL melanoma = system: M19-MEL melanoma
# MALME-3M melanoma = system: MALME-3M melanoma
# MDA-MB-231 breast = system: MDA-MB-231 breast
# MDA-MB-435 = system: MDA-MB-435
# MDA-N = system: MDA-N
# MOLT-4 leukemia = system: MOLT-4 leukemia
# NCI-H226 lung = system: NCI-H226 lung
# NCI-H23 lung = system: NCI-H23 lung
# NCI-H460 lung = system: NCI-H460 lung
# NCI-H522 lung = system: NCI-H522 lung
# NCI/ADR-RES ovarian = system: NCI/ADR-RES ovarian
# OVCAR-3 ovarian = system: OVCAR-3 ovarian
# OVCAR-4 ovarian = system: OVCAR-4 ovarian
# OVCAR-5 ovarian = system: OVCAR-5 ovarian
# OVCAR-8 ovarian = system: OVCAR-8 ovarian
# PC-3 prostate = system: PC-3 prostate
# RPMI-8226 leukemia = system: RPMI-8226 leukemia
# RXF 393 renal = system: RXF 393 renal
# SF-268 CNS = system: SF-268 CNS
# SF-295 CNS = system: SF-295 CNS
# SF-539 CNS = system: SF-539 CNS
# SK-MEL-2 melanoma = system: SK-MEL-2 melanoma
# SK-MEL-28 melanoma = system: SK-MEL-28 melanoma
# SK-MEL-5 melanoma = system: SK-MEL-5 melanoma
# SK-OV-3 ovarian = system: SK-OV-3 ovarian
# SN12C renal = system: SN12C renal
# SNB-19 CNS = system: SNB-19 CNS
# SNB-75 CNS = system: SNB-75 CNS
# SNB-78 CNS = system: SNB-78 CNS
# SR leukemia = system: SR leukemia
# SW-620 colon = system: SW-620 colon
# T-47D breast = system: T-47D breast
# TK-10 renal = system: TK-10 renal
# U251 CNS = system: U251 CNS
# UACC-257 melanoma = system: UACC-257 melanoma
# UACC-62 melanoma = system: UACC-62 melanoma
# UO-31 renal = system: UO-31 renal
# XF 498 CNS = system: XF 498 CNS
smiles,measurement,setting,value
Cn1cnc([N+](=O)[O-])c1Sc1nc(N)nc2c1ncn2C1OC(CO)C(O)C1O (stereo unspecified),TGI,786-0 renal,> 100 µM
same,TGI,A549 NSCLC,> 91 µM
same,TGI,ACHN renal,> 100 µM
same,TGI,BT-549 breast,> 100 µM
same,TGI,CAKI-1 renal,> 100 µM
same,TGI,CCRF-CEM leukemia,> 100 µM
same,TGI,COLO 205 colon,23.8 µM
same,TGI,DLD-1 colon,> 100 µM
same,TGI,DMS 114 small cell lung,> 100 µM
same,TGI,DMS 273 small cell lung,> 100 µM
same,TGI,DU-145 prostate,66.4 µM
same,TGI,EKVX NSCLC,> 100 µM
same,TGI,HCC-2998 colon,15.3 µM
same,TGI,HCT-116 colon,> 52.2 µM
same,TGI,HCT-15 colon,> 100 µM
same,TGI,HL-60(TB) leukemia,28.4 µM
same,TGI,HOP-18 NSCLC,> 100 µM
same,TGI,HOP-62 NSCLC,> 100 µM
same,TGI,HOP-92 NSCLC,> 100 µM
same,TGI,HS 578T breast,> 100 µM
same,TGI,HT29 colon,33.6 µM
same,TGI,IGROV1 ovarian,> 82.1 µM
same,TGI,K-562 leukemia,> 100 µM
same,TGI,KM12 colon,32.7 µM
same,TGI,KM20L2 colon,28.8 µM
same,TGI,LOX IMVI melanoma,> 21.4 µM
same,TGI,LXFL 529 NSCLC,> 100 µM
same,TGI,M14 melanoma,> 100 µM
same,TGI,M19-MEL melanoma,> 100 µM
same,TGI,MALME-3M melanoma,> 100 µM
same,TGI,MDA-MB-231 breast,> 100 µM
same,TGI,MDA-MB-435,29.7 µM
same,TGI,MDA-N,> 100 µM
same,TGI,MOLT-4 leukemia,> 100 µM
same,TGI,NCI-H226 lung,> 89.3 µM
same,TGI,NCI-H23 lung,41.4 µM
same,TGI,NCI-H460 lung,28.1 µM
same,TGI,NCI-H522 lung,33.5 µM
same,TGI,NCI/ADR-RES ovarian,> 100 µM
same,TGI,OVCAR-3 ovarian,> 43.4 µM
same,TGI,OVCAR-4 ovarian,> 100 µM
same,TGI,OVCAR-5 ovarian,> 100 µM
same,TGI,OVCAR-8 ovarian,> 100 µM
same,TGI,PC-3 prostate,> 100 µM
same,TGI,RPMI-8226 leukemia,> 95.5 µM
same,TGI,RXF 393 renal,21.6 µM
same,TGI,SF-268 CNS,> 100 µM
same,TGI,SF-295 CNS,> 72.6 µM
same,TGI,SF-539 CNS,85.6 µM
same,TGI,SK-MEL-2 melanoma,21.1 µM
same,TGI,SK-MEL-28 melanoma,> 100 µM
same,TGI,SK-MEL-5 melanoma,25.7 µM
same,TGI,SK-OV-3 ovarian,45.5 µM
same,TGI,SN12C renal,> 100 µM
same,TGI,SNB-19 CNS,> 100 µM
same,TGI,SNB-75 CNS,> 84.9 µM
same,TGI,SNB-78 CNS,> 100 µM
same,TGI,SR leukemia,> 35.6 µM
same,TGI,SW-620 colon,> 100 µM
same,TGI,T-47D breast,> 100 µM
same,TGI,TK-10 renal,87.6 µM
same,TGI,U251 CNS,> 100 µM
same,TGI,UACC-257 melanoma,> 100 µM
same,TGI,UACC-62 melanoma,22.7 µM
same,TGI,UO-31 renal,37.4 µM
same,TGI,XF 498 CNS,> 100 µM
